From patent US5789447A, “Nitric oxide releasing compounds as protective agents in ischemia reperfusion injury” (priority 1995, dated 1998)

Columns and labels:
leukocytes = assay: Leukocyte adherence and emigration after ischemia reperfusion (mesenteric venules); assay type: in vivo, rat; conditions: 20 min ischemia, 100 μM; for change in leukocyte adherence: FIG. 4A; for effect on emigrated leukocytes: 30 min reperfusion, in words
Protocol: (§1) Male Sprague-Dawley rats weighing 200-250 g apiece were maintained on a purified laboratory diet and fasted for 24 hours prior to each experiment. The animals were initially anesthetized with pentobarbital (65 mg/kg body weight) and then a tracheotomy was performed to facilitate breathing during subsequent experimentation. The right carotid artery was cannulated and system arterial pressure was measured with a Statham P23A pressure transducer (Oxnard, Calif.) connected to the carotid artery cannula. Systemic blood pressure and heart rate were continuously recorder with a Grass physiologic recorded (Grass Instruments).
(§2) Rats were placed in a supine position on an adjustable plexiglass microscope stage and the mesentery was prepared for microscopic observation as described previously (Asako et al., Gastroenterology, 103, 146-152 (1992); Kurose et al., Circ. Res., in press (1993)). Briefly, the mesentery was draped over a non-fluorescent coverslip that allowed for observation of a 2 cm^2 segment of tissue. The exposed bowel wall was covered with Saran Wrap (Dow Chemical Co.) and the mesentery was superfused with bicarbonate-buffered saline (pH 7.4, 37° C.) that was bubbled with a mixture of 5% CO2 and […].
(§3) An inverted microscope (TMD-25, Diaphoto, Nikon, Tokyo, Japan) with a 40x objective lens (Fluor, Nikon) was used to observe the mesenteric microcirculation. The mesentery was transilluminated with a 12 V-100 W direct current-stabilized light source. A video camera (VK-C150, Hitachi, Ibaragi, Japan) mounted on the microscope projected the image onto a color monitor (PVM-2030, Sony, Tokyo, Japan) and the images were recorded using a videocassette record (NV8950, Panasonic, Tokyo, Japan). A video time-date generator (WJ810, Panasonic) projected the time, date and stopwatch function onto the monitor.
(§4) Single unbranched venules with diameters ranging between 25 and 35 μm and length greater than 150 μm were selected for study. Venular diameter (DV) was measured either on- or off-line using a video caliper (Microcirculation Research Institute, Texas A&M University, College Station, Tex.). Red blood cell centerline velocity (VRBC) was measured in venules using an optical Dopper velocimeter (Microcirculation Research Institute, Texas A&M University, College Station, Tex.). The velocimeter was calibrated against a rotating glass disk coated with red blood cells. Venular blood flow was calculated from the product of mean red blood cell velocity (Vmean =centerline velocity/1.6; Davis, Microvasc. Res., 34, 223-230 (1987)) and microvascular cross-sectional area, assuming cylindrical geometry. Wall shear rate (γ) was calculated based on the Newtonian definition γ=8(Vmean /D).
The number of adherent leukocytes was determined off-line during playback of videotape images. A leukocyte was considered to be adherent to venular endothelium if it remained stationary for a period equal to or greater than 30 seconds (Granger et al., Am. J. Physiol., 257, G683-G688 (1989)). Adherent cells were expressed as the number per 100 μm length of venule. The number of emigrated leukocytes was also determined off-line during playback of videotape images. Any interstitial leukocytes present in the mesentery at the onset of the experiment were subtracted from the total number of leukocytes that accumulated during the course of the experiment. Leukocyte emigration was expressed as the number per field of view surrounding the venule. Platelet-leukocyte aggregates, which were visible within postcapillary venules, were quantitated and expressed as the number of aggregates crossing a fixed point within the venule over a 5 min period. Mast cells in the microvascular beds of the rat mesenteries were visualized by using 0.1% toluidine blue. The number of normal and degranulated mast cells was determined and the percentage of degranulated mast cells was calculated.

rat mesenteric venules = assay: Venular diameter, RBC velocity and wall shear rate after ischemia reperfusion; assay type: in vivo; conditions: 100 μM in superfusate; for RBC velocity / Venular diameter / Wall Shear Rate: 30 min after reperfusion
Protocol: as §1, §2, §3, §4
After all parameters measured on-line were in a steady state, images from the mesenteric preparation were recorded on videotape for 10 min. […] The mesentery was made ischemic for zero (sham ischemia) or 20 min. After the ischemic period, the ligation was gently removed. In some experiments, either sodium nitroprusside (SNP, 100 μM, Sigma Chemical), spermine-NO (SpNO, 100 μM), SIN-1 (100 μM), spermine (SP, 100 μM, Sigma Chemical), or NG-nitro-L-arginine methyl ester (L-NAME, 100 μM, Sigma Chemical) was added to the superfusate and the same protocol was employed. Spermine-NO and SIN-1, which are NO donors, were obtained from the National Institutes of Health, Bethesda, Md. […]

mast cells = assay: Degranulation of microvascular mast cells after ischemia reperfusion; assay type: in vivo, rat; conditions: 20 min ischemia, 30 min reperfusion; 100 μM; FIG. 7
Protocol: as §1, §2
(§5) An inverted microscope (TMD-25, Diaphoto, Nikon, Tokyo, Japan) with a 40x objective lens (Fluor, Nikon) was used to observe the mesenteric microcirculation. […] A video camera (VK-C150, Hitachi, Ibaragi, Japan) mounted on the microscope projected the image onto a color monitor (PVM-2030, Sony, Tokyo, Japan) and the images were recorded using a videocassette record (NV8950, Panasonic, Tokyo, Japan). […]
as §4, with “The velocimeter was calibrated against a rotating glass disk coated with red blood cells.” left out
The number of adherent leukocytes was determined off-line during playback of videotape images. […] Adherent cells were expressed as the number per 100 μm length of venule. The number of emigrated leukocytes was also determined off-line during playback of videotape images. […] Leukocyte emigration was expressed as the number per field of view surrounding the venule. […]

mesenteric venules = assay: Albumin leakage across mesenteric venules after ischemia reperfusion; assay type: in vivo, rat; conditions: 100 μM, FIG. 4C; for effect on ischemia reperfusion induced albumin leakage: in words
Protocol: as §1, §2, §3
as §4, with “The velocimeter was calibrated against a rotating glass disk coated with red blood cells.” left out
After all parameters measured on-line were in a steady state, images from the mesenteric preparation were recorded on videotape for 10 min. […]

intestinal mucosa = assay: Intestinal blood to lumen 51Cr-EDTA clearance (mucosal permeability) in cat small intestine transplant; assay type: in vivo, cats
small intestine = assay: Water absorption in cat small intestine transplant; assay type: in vivo, cats; conditions: at 90 and 120 min; 0.5 mmol; FIG. 10
[1] = tested on: platelet-leukocyte aggregates; assay: Platelet-leukocyte aggregates after ischemia reperfusion; assay type: in vivo, rat; conditions: 20 min ischemia, 30 min reperfusion; 100 μM; FIG. 6
Protocol: as §1, with “Instruments). […]” for “Instruments).”
as §5
Single unbranched venules with diameters ranging between 25 and 35 μm and length greater than 150 μm were selected for study. Venular diameter (DV) was measured either on- or off-line using a video caliper (Microcirculation Research Institute, Texas A&M University, College Station, Tex.). […] Wall shear rate (γ) was calculated based on the Newtonian definition γ=8(Vmean /D). […]

microvasculature = assay: Capillary pressure and vascular resistance in cat small intestine transplant; assay type: in vivo, cats; conditions: FIG. 13
[2] = tested on: Chinese hamster V79 lung fibroblasts; assay: V79 clonogenic survival, hydrogen peroxide cytotoxicity; assay type: cell-based; conditions: 1 mM; for effect on hydrogen peroxide cytotoxicity: FIG. 2B; for protection from hydrogen peroxide cytotoxicity: decomposition products of DEA/NO, FIG. 1B
Source text: Colonies containing more than 50 cells were scored.

[3] = tested on: Chinese hamster V79 lung fibroblasts; assay: V79 clonogenic survival, hypoxanthine/xanthine oxidase (HX/XO) cytotoxicity; conditions: decomposition products of DEA/NO, 1 mM
Protocol: Chinese hamster V79 lung fibroblasts were cultured in F12 medium supplemented with 10% fetal calf serum and antibiotics. Cell survival was assessed by clonogenic assay with 85-95% plating efficiency. Stock cultures of exponentially growing cells were trypsinized, rinsed, and plated (7×10^5 cells/dish) into a number of 100 cm^2 petri dishes and incubated 16 hr at 37° C. prior to experimental protocols.
It has been shown that exposure of V79 cells to hydrogen peroxide results in dose-dependent cytotoxicity (Mitchell et al., supra).
HX and XO were purchased from Boehringer Co. (Indianapolis, Ind.). Nitrite, diethylamine, sulfinamide, diethylenetriaminepentaacetic acid (DETAPAC) and N-(1-naphthyl)ethylenediaminedihydrogenchloride (NEDD) were purchased from Aldrich (Milwaukee, Wis.). Cytosine-β-D-arabinofuranoside and ferricytochrome c were purchased from Sigma (St. Louis, Mo.). DEA/NO and SPER/NO were synthesized as previously described (Maragos et al., (1991), supra).
Exponentially growing cultures of Chinese hamster V79 fibroblasts were exposed to either HX/XO (final concentration of HX was 0.5 mM; 0.08 units/ml XO were used) for various amounts of time (FIG. 1A) or to various concentrations of hydrogen peroxide for one hour (FIG. 1B). […] Additionally, 1 mM DEA/NO was added to medium in the absence of cells, incubated at 37° C. for 1 hr or 16 hrs, and then added just prior to the addition of hydrogen peroxide to evaluate the effects of DEA/NO which had released NO. After treatment, cell monolayers were rinsed twice with phosphate-buffered saline (PBS), trypsinized, counted and plated in triplicate for macroscopic colony formation. Each dose determination was plated in triplicate and experiments were repeated a minimum of two times. Plates were incubated for 7 days, after which colonies were fixed with methanol/acetic acid (3:1), stained with crystal violet, and counted. Colonies containing more than 50 cells were scored.

XO [4] = target: T1, XO (Bos taurus, UniProt P80457); assay: XO activity by superoxide-induced reduction of ferricytochrome c; assay type: biochemical; conditions: 1 mM, preincubated with HX/XO
Protocol: (§6) The activity of XO was monitored in the absence and presence of 1 mM DEA/NO by two different assays. Superoxide-induced reduction of ferricytochrome c to ferrocytochrome c was monitored spectrophotometrically at 550 nm (Fridovich, Handbook of Method for Oxygen Radical Research, pages 213-215 (1985)). The reaction was carried out in a 1 ml volume in aerated phosphate buffer (pH 7.8, 50 mM) containing 50 μM DETAPAC. HX was maintained at 2.5 mM and ferricytochrome c at 20 μM. The reactions were initiated with the addition of XO (final concentration of 0.2 units/ml). The activity of XO in the absence and presence of 1 mM DEA/NO was directly monitored by measuring the production of uric acid spectrophotometrically at 305 nm for 10 min under the same conditions but in the absence of ferricytochrome c. All enzymatic assays and chemical reactions were done at 37° C.

XO [5] = target: T1, XO; assay: XO activity by uric acid production at 305 nm; assay type: biochemical; conditions: 1 mM, preincubated with HX/XO
Protocol: as §6

[6] = tested on: Chinese hamster V79 lung fibroblasts; conditions: Mitchell et al.; cited from earlier work

T1 sequence (P80457 whole entry): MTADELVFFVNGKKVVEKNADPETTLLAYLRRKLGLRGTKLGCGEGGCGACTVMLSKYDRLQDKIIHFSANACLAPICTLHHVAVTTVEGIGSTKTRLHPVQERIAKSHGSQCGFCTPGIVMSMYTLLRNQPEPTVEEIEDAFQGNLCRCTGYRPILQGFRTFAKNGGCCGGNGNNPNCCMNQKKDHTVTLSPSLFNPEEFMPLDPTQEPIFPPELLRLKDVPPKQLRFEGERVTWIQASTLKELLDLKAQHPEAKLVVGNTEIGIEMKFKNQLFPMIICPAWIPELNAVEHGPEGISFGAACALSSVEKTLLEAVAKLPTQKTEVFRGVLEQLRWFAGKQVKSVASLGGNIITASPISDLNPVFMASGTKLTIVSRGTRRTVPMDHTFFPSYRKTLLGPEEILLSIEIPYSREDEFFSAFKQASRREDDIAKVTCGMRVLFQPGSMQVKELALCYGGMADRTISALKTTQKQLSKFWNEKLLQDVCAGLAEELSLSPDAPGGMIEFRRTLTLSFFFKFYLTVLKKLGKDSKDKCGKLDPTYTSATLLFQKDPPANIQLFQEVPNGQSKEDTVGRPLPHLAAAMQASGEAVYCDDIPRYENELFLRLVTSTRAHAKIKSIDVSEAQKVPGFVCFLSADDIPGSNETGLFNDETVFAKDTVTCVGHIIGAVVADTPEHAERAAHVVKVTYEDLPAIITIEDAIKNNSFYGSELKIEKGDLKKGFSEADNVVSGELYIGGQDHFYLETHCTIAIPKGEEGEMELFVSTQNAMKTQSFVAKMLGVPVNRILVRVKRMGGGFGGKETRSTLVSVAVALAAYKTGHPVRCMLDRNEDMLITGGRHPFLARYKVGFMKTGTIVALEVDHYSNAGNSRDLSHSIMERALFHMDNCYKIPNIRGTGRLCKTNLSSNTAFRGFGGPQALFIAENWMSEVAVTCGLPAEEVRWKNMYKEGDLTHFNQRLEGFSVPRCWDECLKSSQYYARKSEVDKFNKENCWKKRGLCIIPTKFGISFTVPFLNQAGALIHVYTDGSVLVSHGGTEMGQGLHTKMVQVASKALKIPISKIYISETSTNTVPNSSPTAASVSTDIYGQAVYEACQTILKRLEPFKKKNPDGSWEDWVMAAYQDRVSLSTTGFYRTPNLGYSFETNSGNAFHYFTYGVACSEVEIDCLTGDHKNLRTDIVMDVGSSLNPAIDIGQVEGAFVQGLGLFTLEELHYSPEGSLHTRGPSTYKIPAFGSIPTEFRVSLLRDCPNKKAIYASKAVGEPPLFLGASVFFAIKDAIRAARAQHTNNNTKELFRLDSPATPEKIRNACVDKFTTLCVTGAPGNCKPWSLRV

For `COC(=O)[C@@H](N)CCCNC(=N)N[N+](=O)[O-]` [L-NAME, NG-nitro-L-arginine methyl ester], the “change in leukocyte adherence” value (leukocytes; 10 and 30 min reperfusion) was “no significant changes”, the “effect on emigrated leukocytes” value (leukocytes; FIG. 4B) was “no effect” and the RBC velocity (rat mesenteric venules) was 1.84 ± 0.09 mm/sec. The Venular diameter (rat mesenteric venules) was 29.2 ± 1.5 μm, the “Wall Shear Rate” value (rat mesenteric venules) was 316 ± 10 L/s and the “degranulation of microvascular mast cells” value (from here on “degranulation”) (mast cells) was “had no effect”. The “effect on ischemia reperfusion induced albumin leakage” value (mesenteric venules) was “no effect”.

With `[NH-]c1c[n+](N2CCOCC2)no1` [SIN-1] the “mucosal permeability (51Cr-EDTA clearance)” value (intestinal mucosa; 6-hr hypothermic ischemia, 120 min reperfusion, FIG. 9) was “decreased”, the 51Cr-EDTA clearance (intestinal mucosa; at 60 and 90 min, 0.5 mmol luminal perfusate) was “statistically significant decrease” and the “reduction of number of emigrated leukocytes” value (leukocytes; 10 and 30 min reperfusion, FIG. 4B) was 68-75%. For the same molecule, the water absorption (small intestine) was “significantly increased”, the “reversal of decrease in RBC velocity after reperfusion” value (rat mesenteric venules; in words) was “reversed the decreases” and the “reversal of decrease in wall shear rate after reperfusion” value (rat mesenteric venules; in words) was “reversed the decreases”. The RBC velocity (rat mesenteric venules) was 2.64 ± 0.23 mm/sec, the Venular diameter (rat mesenteric venules) was 29.0 ± 1.1 μm and the “Wall Shear Rate” value (rat mesenteric venules) was 457 ± 38 L/s. The “degranulation” value (mast cells) was “significantly inhibited”, the platelet-leukocyte aggregate formation [1] was “reduced” and the “attenuation of albumin leakage” value (mesenteric venules; 10 min and 30 min after reperfusion) was 60-71%. The capillary pressure (microvasculature) was “No significant changes”.

In the case of `NCCCNCCCCNCCCN` [SP, spermine], the “change in leukocyte adherence” value (leukocytes; 10 and 30 min reperfusion) is reported as “no significant changes”, the “effect on emigrated leukocytes” value (leukocytes; FIG. 4B) is reported as “no effect” and the RBC velocity (rat mesenteric venules) is reported as 2.32 ± 0.19 mm/sec. The Venular diameter (rat mesenteric venules) was 29.8 ± 1.4 μm, the “Wall Shear Rate” value (rat mesenteric venules) was 391 ± 28 L/s and the “degranulation” value (mast cells) was “had no effect”. The “effect on ischemia reperfusion induced albumin leakage” value (mesenteric venules) was “no effect”.

In the case of `CCNCC` [diethylamine], the “effect on hydrogen peroxide cytotoxicity” value [2] is reported as “had no effect on hydrogen peroxide cytotoxicity”, the “protection from hydrogen peroxide cytotoxicity” value [2] is reported as “did not protect” and the “protection from HX/XO-induced cytotoxicity” value [3] is reported as “did not protect”. For the same molecule, the “inhibition of XO activity, production of superoxide (cytochrome c reduction)” value (XO [4]) was “did not inhibit the activity of XO” and the “inhibition of XO activity, uric acid production” value (XO [5]) was “did not inhibit the activity of XO”.

For `O=NO` [nitrite], the “effect on hydrogen peroxide cytotoxicity” value [2] was “potentiated hydrogen peroxide cytotoxicity”, the “protection from hydrogen peroxide cytotoxicity” value [2] was “did not protect” and the “protection from HX/XO-induced cytotoxicity” value [3] was “did not protect”. The “inhibition of XO activity, production of superoxide (cytochrome c reduction)” value (XO [4]) was “did not inhibit the activity of XO” and the “inhibition of XO activity, uric acid production” value (XO [5]) was “did not inhibit the activity of XO”.

For superoxide dismutase, the “HX/XO induced cytotoxicity with added enzyme” value [6] is listed as “not treated”.

B1: catalase: catalase (protein, UniProt P04040 2-527, looked up)
Catalase: ADSRDPASDQMQHWKEQRAAQKADVLTTGAGNPVGDKLNVITVGPRGPLLVQDVVFTDEMAHFDRERIPERVVHAKGAGAFGYFEVTHDITKYSKAKVFEHIGKKTPIAVRFSTVAGESGSADTVRDPRGFAVKFYTEDGNWDLVGNNTPIFFIRDPILFPSFIHSQKRNPQTHLKDPDMVWDFWSLRPESLHQVSFLFSDRGIPDGHRHMNGYGSHTFKLVNANGEAVYCKFHYKTDQGIKNLSVEDAARLSQEDPDYGIRDLFNAIATGKYPSWTFYIQVMTFNQAETFPFNPFDLTKVWPHKDYPLIPVGKLVLNRNPVNYFAEVEQIAFDPSNMPPGIEASPDKMLQGRLFAYPDTHRHRLGPNYLHIPVNCPYRARVANYQRDGPMCMQDNQGGAPNYYPNSFGAPEQQPSALEHSIQYSGEVRRFNTANDDNVTQVRAFYVNVLNEEQRKRLCENIAGHLKDAQIFIQKKAVKNFTEVHPDYGSHIQALLDKYNAEKPKNAIHTFVQSGSHLAAREKANL
In the case of B1, the “HX/XO induced cytotoxicity with added enzyme” value [6] is given as “treated the cytotoxicity”.
